US20260035364A1, “BICYCLIC TETRAHYDROTHIAZEPINE DERIVATIVES” (Hoffmann-La Roche Inc., priority 2022, published 2026)
Where two headings read alike, the source gives them in different places.

Legend:
[1] = tested on: primary human T-cells; test: T-cell proliferation assay (CellTiter-Glo); assay type: cell-based; conditions: CD3 condition; for Emax: read-out: Emax proliferation (% activation); for EC50: proliferation after 5 days, CellTiter-Glo, read-out: Tcell Proliferation CD3 EC50
Outline: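 Expanded primary human T-cells (100k/well) on plates coated with CD3 antibody or PBS only, given a 5- or 6-point dose response (top 20 or 10 μM final, 3.333-fold steps, 0.2% DMSO). ATP measured by CellTiter-Glo 2.0 luminescence after 5 days. Normalized to DMSO and 20 μM reference A1 (100%); EC50 and Emax reported for CD3 conditions.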

[2] = biological target: DGKalpha (Homo sapiens, UniProt P23743); test: In vitro DGK inhibition assay (ADP-Glo, liposomes), DGKalpha; assay type: biochemical; parameters: hDGKalpha(1-735)-N-His; His (N); made in house; host or cells: Sf21 insect cells (baculovirus); conditions: 4 nM DGK α, 25 μM ATP, 125 uM DLG in liposomes, 1 hour reaction
Outline: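 Full-length human DGKα (4 nM) or DGKζ (2 nM) from Sf21 cells, with DLG substrate at 125 uM in PS/PC liposomes and ATP at 25 μM (α) or 50 μM (ζ); 1 h reaction. ADP formed read by ADP-Glo luminescence; compounds 11-point, 1:3 dilutions from 10 mM, 2% DMSO final.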

[3] = Homo sapiens, T-cell, 120 h, 5 days, 20 μM reference compound A1 = 100%

Sequence of DGKalpha (P23743 whole entry): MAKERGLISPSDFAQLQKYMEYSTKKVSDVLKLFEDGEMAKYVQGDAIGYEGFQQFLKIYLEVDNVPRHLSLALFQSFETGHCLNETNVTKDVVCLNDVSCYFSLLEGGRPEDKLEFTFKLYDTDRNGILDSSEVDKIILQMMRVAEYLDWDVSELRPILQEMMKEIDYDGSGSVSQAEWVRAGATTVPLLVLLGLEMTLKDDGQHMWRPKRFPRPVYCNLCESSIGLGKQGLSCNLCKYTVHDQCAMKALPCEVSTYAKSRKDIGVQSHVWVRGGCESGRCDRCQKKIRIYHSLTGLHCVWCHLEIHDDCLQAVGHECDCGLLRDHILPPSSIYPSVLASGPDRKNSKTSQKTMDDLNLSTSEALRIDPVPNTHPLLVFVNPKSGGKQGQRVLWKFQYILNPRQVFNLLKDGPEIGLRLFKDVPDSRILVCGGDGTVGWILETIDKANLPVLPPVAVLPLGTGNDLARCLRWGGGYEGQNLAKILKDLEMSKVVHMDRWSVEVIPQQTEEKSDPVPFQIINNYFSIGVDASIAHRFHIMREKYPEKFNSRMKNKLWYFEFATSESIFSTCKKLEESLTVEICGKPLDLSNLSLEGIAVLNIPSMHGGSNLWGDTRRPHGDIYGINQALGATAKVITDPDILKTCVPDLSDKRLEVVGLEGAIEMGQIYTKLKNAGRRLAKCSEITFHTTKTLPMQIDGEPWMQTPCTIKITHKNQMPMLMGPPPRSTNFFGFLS

Row | IC50 [2] | SMILES | Emax [1, 3] | EC50 ([1]; Homo sapiens, T-cell, 120 h) | Emax proliferation (% activation) ([1]; 5 days, 20 μM reference compound A1 = 100%) | EC50 [1]
1 | 2340 nM | CS(=O)(=O)C1(c2nnc(-c3cc4c(cc3F)S(=O)(=O)C[C@H](N)C(=O)N4Cc3ccc(Cl)cc3)o2)CC1 [Example 1, (3R)-3-amino-5-[(4-chlorophenyl)methyl]-8-fluoro-7-[5-(1-methylsulfonylcyclopropyl)-1,3,4-oxadiazol-2-yl]-1,1-dioxo-2,3-dihydro-1λ6,5-benzothiazepin-4-one] | 99% | 2290 nM | – | –
2 | 1160 nM | COc1cccc(Oc2ccc(CN3C(=O)[C@@H](N)CS(=O)(=O)c4ccc(-c5nnc(C(C)(C)S(C)(=O)=O)o5)cc43)cc2)c1 [Example 42] | 205% | 674 nM | – | –
3 | 27200 nM | CC(C)(c1nnc(-c2ccc3c(c2)N(Cc2ccc(-c4ccc(C(F)(F)F)cc4)nc2)C(=O)[C@@H](N)CS3(=O)=O)o1)S(C)(=O)=O [Example 57, (3R)-3-amino-7-[5-(1-methyl-1-methylsulfonyl-ethyl)-1,3,4-oxadiazol-2-yl]-1,1-dioxo-5-[[6-[4-(trifluoromethyl)phenyl]-3-pyridyl]methyl]-2,3-dihydro-1λ6,5-benzothiazepin-4-one] | 65% | 1110 nM | – | –
4 | 3230 nM | CC(C)(c1nnc(-c2ccc3c(c2)N(Cc2ccc(Oc4cccc(C(F)(F)F)c4)cc2)C(=O)[C@@H](N)CS3(=O)=O)o1)S(C)(=O)=O [Example 38] | 130% | 623 nM | – | –
5 | 175 nM | CC(C)(c1nnc(-c2ccc3c(c2)N(Cc2ccc(-c4ccc(OC(F)(F)F)cn4)cc2)C(=O)[C@@H](N)CS3(=O)=O)o1)S(C)(=O)=O [Example 69, (3R)-3-amino-1,1-diketo-7-[5-(1-mesyl-1-methyl-ethyl)-1,3,4-oxadiazol-2-yl]-5-[4-[5-(trifluoromethoxy)-2-pyridyl]benzyl]-2,3-dihydro-1λ6,5-benzothiazepin-4-one] | 91% | 31 nM | – | –
6 | 3260 nM | CC(C)(c1nnc(-c2ccc3c(c2)N(Cc2ccc(OC(F)(F)F)cc2)C(=O)[C@@H](N)CS3(=O)=O)o1)S(C)(=O)=O [Example 64, (3R)-3-amino-7-[5-(1-methyl-1-methylsulfonyl-ethyl)-1,3,4-oxadiazol-2-yl]-1,1-dioxo-5-[[4-(trifluoromethoxy)phenyl]methyl]-2,3-dihydro-126,5-benzothiazepin-4-one] | 98% | 6170 nM | – | –
7 | > 62500 nM | CN(C)S(=O)(=O)C(C)(C)c1nnc(-c2ccc3c(c2)N(Cc2ccc(-c4ccc(C(F)(F)F)cc4)cc2)C(=O)[C@@H](N)CS3(=O)=O)o1 [Example 65, 2-[5-[(3R)-3-amino-1,1,4-trioxo-5-[[4-[4-(trifluoromethyl)phenyl]phenyl]methyl]-2,3-dihydro-1λ6,5-benzothiazepin-7-yl]-1,3,4-oxadiazol-2-yl]-N,N-dimethyl-propane-2-sulfonamide] | 155% | 2620 nM | – | –
8 | 13400 nM | CC(C)(c1nnc(-c2ccc3c(c2)N(Cc2ccc(Oc4cccc(Cl)c4Cl)cc2)C(=O)[C@@H](N)CS3(=O)=O)o1)S(C)(=O)=O [Example 32, (3R)-3-amino-5-[[4-(2,3-dichlorophenoxy)phenyl]methyl]-7-[5-(1-methyl-1-methylsulfonyl-ethyl)-1,3,4-oxadiazol-2-yl]-1,1-dioxo-2,3-dihydro-1λ6,5-benzothiazepin-4-one] | 75% | 356 nM | – | –
9 | 2290 nM | CC(C)(c1nc(-c2cc3c(cc2F)[S+]([O-])C[C@H](N)C(=O)N3Cc2ccc(Oc3ccccc3)cc2)no1)S(C)(=O)=O (stereo partly drawn) [Example 51, (3R)-3-amino-8-fluoro-7-[5-(1-methyl-1-methylsulfonyl-ethyl)-1,2,4-oxadiazol-3-yl]-1-oxo-5-[(4-phenoxyphenyl)methyl]-2,3-dihydro-1λ4,5-benzothiazepin-4-one] | – | – | 67% | > 10000 nM
10 | > 62500 nM | CC(C)(c1nnc(-c2ccc3c(c2)N(Cc2ccc(-c4ccc(C(F)(F)F)cc4)cc2)C(=O)[C@@H](N)CS3(=O)=O)o1)S(=O)(=O)N1CCCC1 [Example 67, (3R)-3-amino-7-[5-(1-methyl-1-pyrrolidin-1-ylsulfonyl-ethyl)-1,3,4-oxadiazol-2-yl]-1,1-dioxo-5-[[4-[4-(trifluoromethyl)phenyl]phenyl]methyl]-2,3-dihydro-1λ6,5-benzothiazepin-4-one] | 142% | 5510 nM | – | –
11 | 1590 nM | CC(C)(c1nnc(-c2cc3c(cc2F)S(=O)(=O)C[C@H](N)C(=O)N3Cc2ccc(-c3ccc(C(F)(F)F)nc3)cc2)o1)S(C)(=O)=O [Example 36] | 112% | 1680 nM | – | –
12 | 1730 nM | CC(C)(c1nnc(-c2ccc3c(c2)N(Cc2ccc(OC(F)(F)C(F)F)cc2)C(=O)[C@@H](N)CS3(=O)=O)o1)S(C)(=O)=O [Example 3, (3R)-3-amino-7-[5-(1-methyl-1-methylsulfonyl-ethyl)-1,3,4-oxadiazol-2-yl]-1,1-dioxo-5-[[4-(1,1,2,2-tetrafluoroethoxy)phenyl]methyl]-2,3-dihydro-126,5-benzothiazepin-4-one] | 66% | 5070 nM | – | –
13 | 41000 nM | COc1cc(Cl)cc(Oc2ccc(CN3C(=O)[C@@H](N)CS(=O)(=O)c4ccc(-c5nnc(C(C)(C)S(C)(=O)=O)o5)cc43)cc2)c1 [Example 41, (3R)-3-amino-5-[[4-(3-chloro-5-methoxy-phenoxy)phenyl]methyl]-7-[5-(1-methyl-1-methylsulfonyl-ethyl)-1,3,4-oxadiazol-2-yl]-1,1-dioxo-2,3-dihydro-1λ6,5-benzothiazepin-4-one] | 97% | 1710 nM | – | –
14 | 447 nM | CC(C)(c1nnc(-c2cc3c(cc2F)S(=O)(=O)C[C@H](N)C(=O)N3Cc2ccc(OC(F)(F)C(F)F)cc2)o1)S(C)(=O)=O [Example 26, (3R)-3-amino-8-fluoro-7-[5-(1-methyl-1-methylsulfonyl-ethyl)-1,3,4-oxadiazol-2-yl]-1,1-dioxo-5-[[4-(1,1,2,2-tetrafluoroethoxy)phenyl]methyl]-2,3-dihydro-1λ6,5-benzothiazepin-4-one] | 122% | 573 nM | – | –
15 | 11100 nM | COc1ccc(-c2ccc(CN3C(=O)[C@@H](N)CS(=O)(=O)c4ccc(-c5nnc(C(C)(C)S(C)(=O)=O)o5)cc43)cc2)c(C)c1 [Example 49, (3R)-3-amino-5-[[4-(4-methoxy-2-methyl-phenyl)phenyl]methyl]-7-[5-(1-methyl-1-methylsulfonyl-ethyl)-1,3,4-oxadiazol-2-yl]-1,1-dioxo-2,3-dihydro-1λ6,5-benzothiazepin-4-one] | 111% | 3130 nM | – | –
16 | 2110 nM | COc1ccc(-c2ccc(CN3C(=O)[C@@H](N)CS(=O)(=O)c4cc(F)c(-c5noc(C(C)(C)S(C)(=O)=O)n5)cc43)cc2)cc1 [Example 50, (3R)-3-amino-8-fluoro-5-[[4-(4-methoxyphenyl)phenyl]methyl]-7-[5-(1-methyl-1-methylsulfonyl-ethyl)-1,2,4-oxadiazol-3-yl]-1,1-dioxo-2,3-dihydro-1λ6,5-benzothiazepin-4-one] | 293% | 757 nM | – | –
17 | 1070 nM | COCC(C)(C)Oc1ccc(CN2C(=O)[C@@H](N)CS(=O)(=O)c3cc(F)c(-c4noc(C(C)(C)S(C)(=O)=O)n4)cc32)cc1 [Example 62, (3R)-3-amino-8-fluoro-5-[[4-(2-methoxy-1,1-dimethyl-ethoxy)phenyl]methyl]-7-[5-(1-methyl-1-methylsulfonyl-ethyl)-1,2,4-oxadiazol-3-yl]-1,1-dioxo-2,3-dihydro-benzothiazepin-4-one] | 188% | 1390 nM | – | –
18 | 3350 nM | CC(C)(c1nnc(-c2ccc3c(c2)N(Cc2ccc(-c4noc(C(F)(F)F)n4)cc2)C(=O)[C@@H](N)CS3(=O)=O)o1)S(C)(=O)=O [Example 17, (3R)-3-amino-7-[5-(1-methyl-1-methylsulfonyl-ethyl)-1,3,4-oxadiazol-2-yl]-1,1-dioxo-5-[[4-[5-(trifluoromethyl)-1,2,4-oxadiazol-3-yl]phenyl]methyl]-2,3-dihydro-1λ6,5-benzothiazepin-4-one] | 112% | 1460 nM | – | –
19 | 1970 nM | CC(C)(c1nnc(-c2ccc3c(c2)N(Cc2ccc(Oc4cccc(OC(F)(F)F)c4)cc2)C(=O)[C@@H](N)CS3(=O)=O)o1)S(C)(=O)=O [Example 40, (3R)-3-amino-7-[5-(1-methyl-1-methylsulfonyl-ethyl)-1,3,4-oxadiazol-2-yl]-1,1-dioxo-5-[[4-[3-(trifluoromethoxy)phenoxy]phenyl]methyl]-2,3-dihydro-126,5-benzothiazepin-4-one] | 148% | 903 nM | – | –
20 | 3120 nM | CC(C)(c1nnc(-c2ccc3c(c2)N(Cc2ccc(Oc4ccccc4)cc2)C(=O)[C@@H](N)CS3(=O)=O)o1)S(C)(=O)=O [Example 5, (3R)-3-amino-7-[5-(1-methyl-1-methylsulfonyl-ethyl)-1,3,4-oxadiazol-2-yl]-1,1-dioxo-5-[(4-phenoxyphenyl)methyl]-2,3-dihydro-1λ6,5-benzothiazepin-4-one] | 120% | 942 nM | – | –
